“And” between values parts separate entries of the source, which are not always exact repeats. Identical values can stand only once.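 Results reflect a 48-hour exposure of cells in 96-well plates to compound at five concentrations. GI50: concentration for 50% inhibition of growth. TGI denotes the concentration required for complete inhibition of growth.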
Assays:
Assay in all cases: NCI anticancer screen, dose series, 48 h
[1] = test system: LOX IMVI melanoma
[2] = test system: U251 CNS
[3] = test system: A498 renal
[4] = test system: ACHN renal
[5] = test system: NCI-H226 lung
[6] = test system: NCI/ADR-RES ovarian
[7] = test system: HS 578T breast
[8] = test system: TK-10 renal
[9] = test system: UO-31 renal
[10] = test system: PC-3 prostate
[11] = test system: T-47D breast
[12] = test system: M14 melanoma
[13] = test system: MDA-MB-435
[14] = test system: SF-295 CNS
[15] = test system: SF-539 CNS
[16] = test system: SR leukemia
[17] = test system: UACC-257 melanoma
[18] = test system: SK-MEL-2 melanoma
[19] = test system: HL-60(TB) leukemia
[20] = test system: OVCAR-3 ovarian
[21] = test system: HCC-2998 colon
[22] = test system: SNB-19 CNS
[23] = test system: IGROV1 ovarian
[24] = test system: K-562 leukemia
[25] = test system: HT29 colon
[26] = test system: SW-620 colon
[27] = test system: MOLT-4 leukemia
[28] = test system: A549 NSCLC
[29] = test system: NCI-H460 lung
[30] = test system: OVCAR-4 ovarian
[31] = test system: HOP-92 NSCLC
[32] = test system: MCF7 breast
[33] = test system: OVCAR-5 ovarian
[34] = test system: OVCAR-8 ovarian
[35] = test system: HCT-116 colon
[36] = test system: SK-OV-3 ovarian
[37] = test system: SF-268 CNS
[38] = test system: 786-0 renal
[39] = test system: SK-MEL-28 melanoma
[40] = test system: SK-MEL-5 melanoma
[41] = test system: CCRF-CEM leukemia
[42] = test system: RPMI-8226 leukemia
[43] = test system: EKVX NSCLC
[44] = test system: MALME-3M melanoma
[45] = test system: SNB-75 CNS
[46] = test system: RXF 393 renal
[47] = test system: HOP-62 NSCLC
[48] = test system: BT-549 breast
[49] = test system: MDA-MB-231 breast
[50] = test system: NCI-H23 lung
[51] = test system: CAKI-1 renal
[52] = test system: HCT-15 colon
[53] = test system: SN12C renal
[54] = test system: UACC-62 melanoma
[55] = test system: COLO 205 colon
[56] = test system: KM12 colon
[57] = test system: NCI-H522 lung
[58] = test system: DU-145 prostate

## O=C(Nc1ccc(O)c(NS(=O)(=O)c2ccc(F)cc2)c1)c1ccc(-c2ccccc2)cc1
[1]
  GI50: 6.18 µM
  TGI: 21.1 µM
[2]
  GI50: 9.07 µM
  TGI: 26.1 µM
[3]
  GI50: 13.4 µM
  TGI: 26.7 µM
[4]
  GI50: 6.3 µM
  TGI: 25.7 µM
[5]
  GI50: 4.96 µM
  TGI: 23.8 µM
[6]
  GI50: 5.67 µM
  TGI: 20.7 µM
[7]
  GI50: 5.42 µM
  TGI: 31.8 µM
[8]
  GI50: 11.9 µM
  TGI: 30.3 µM
[9]
  GI50: 3.35 µM
  TGI: > 100 µM
[10]
  GI50: 3.84 µM
  TGI: 16.7 µM
[11]
  GI50: 3.07 µM
  TGI: 18.4 µM
[12]
  GI50: 7.32 µM
  TGI: 21.6 µM
[13]
  GI50: 8.12 µM
  TGI: 26 µM
[14]
  GI50: 9.71 µM
  TGI: 24 µM
[15]
  GI50: 8.93 µM
  TGI: 22.4 µM
[16]
  GI50: 2.47 µM
  TGI: 9.3 µM
[17]
  GI50: 5.71 µM
  TGI: 46.6 µM
[18]
  GI50: 15.1 µM
  TGI: 46.2 µM
[19]
  GI50: 1.4 µM
  TGI: 5.34 µM
[20]
  GI50: 4.72 µM
  TGI: 22.1 µM
[21]
  GI50: 17.5 µM
  TGI: 45.3 µM
[22]
  GI50: 14.4 µM
  TGI: 34.2 µM
[23]
  GI50: 4.65 µM
  TGI: 20.5 µM
[24]
  GI50: 3.68 µM
  TGI: 14.6 µM
[25]
  GI50: 14.1 µM
  TGI: 30.9 µM
[26]
  GI50: 7.23 µM
  TGI: 22.2 µM
[27]
  GI50: 2.58 µM
  TGI: 11 µM
[28]
  GI50: 4.81 µM
  TGI: 29.9 µM
[29]
  GI50: 3.85 µM
  TGI: 15.9 µM
[30]
  GI50: 4.45 µM
  TGI: 25.3 µM
[31]
  GI50: 2.68 µM
  TGI: 17.1 µM
[32]
  GI50: 3.85 µM
  TGI: 17.4 µM
[33]
  GI50: 13.6 µM
  TGI: 27 µM
[34]
  GI50: 5.32 µM
  TGI: > 100 µM
[35]
  GI50: 5.12 µM
  TGI: 20.7 µM
[36]
  GI50: 18.8 µM
  TGI: 44.2 µM
[37]
  GI50: 6.49 µM
  TGI: 33.2 µM
[38]
  GI50: 7.87 µM
  TGI: 22.7 µM
[39]
  GI50: 9.06 µM
  TGI: 23.5 µM
[40]
  GI50: 6.42 µM
  TGI: 19.3 µM
[41]
  GI50: 2.96 µM
  TGI: 13 µM
[42]
  GI50: 2.87 µM
  TGI: 18.2 µM
[43]
  GI50: 7.17 µM
  TGI: 26.4 µM
[44]
  GI50: 11.5 µM
  TGI: 23.9 µM
[45]
  GI50: 2.68 µM
  TGI: 15.7 µM
[46]
  GI50: 2.53 µM
  TGI: 10.7 µM
[47]
  GI50: 19.9 µM
  TGI: 40.2 µM
[48]
  GI50: 4.6 µM
  TGI: 20.2 µM
[49]
  GI50: 6.15 µM
  TGI: 20.4 µM
[50]
  GI50: 10.5 µM
  TGI: 24.3 µM
[51]
  GI50: 5.65 µM
  TGI: 32.6 µM
[52]
  GI50: 4.36 µM
  TGI: 17.3 µM
[53]
  GI50: 9.79 µM
  TGI: 21.7 µM
[54]
  GI50: 7.53 µM
  TGI: 28.1 µM
[55]
  GI50: 15.6 µM
  TGI: 31.2 µM
[56]
  GI50: 10 µM
  TGI: 23.3 µM
[57]
  GI50: 2.27 µM
  TGI: 8.7 µM
[58]
  GI50: 11.7 µM
  TGI: 26.3 µM

## COc1cccc2cc(-c3nc(C4CCC(C(=O)O)CC4)n4ncnc(N)c34)[nH]c12 (configuration not stated)
[1]
  GI50: 0.368 µM and 0.825 µM
  TGI: 4.85 µM and > 10 µM
[2]
  GI50: 0.666 µM and 1.26 µM
  TGI: > 100 µM
[3]
  GI50: 0.0677 µM and 0.0601 µM
  TGI: 0.407 µM and 0.365 µM
[4]
  GI50: 0.42 µM and 1.03 µM
  TGI: 15.5 µM and > 10 µM
[5]
  GI50: 0.347 µM and 0.397 µM
  TGI: > 7.79 µM
[6]
  GI50: 0.406 µM and 0.804 µM
  TGI: 10.3 µM and > 10 µM
[7]
  GI50: 0.135 µM and 0.11 µM
  TGI: 0.627 µM and 0.979 µM
[8]
  GI50: 0.15 µM and 0.411 µM
  TGI: 1.63 µM and 6.11 µM
[9]
  GI50: 0.129 µM and 0.21 µM
  TGI: 2.13 µM and 3.35 µM
[10]
  GI50: 0.129 µM and 0.342 µM
  TGI: 2.03 µM and 4.42 µM
[11]
  GI50: 0.045 µM and 0.0505 µM
  TGI: 0.442 µM and 0.356 µM
[12]
  GI50: 0.219 µM and 0.36 µM
  TGI: 3.76 µM and > 7.22 µM
[13]
  GI50: 0.288 µM and 0.531 µM
  TGI: 3.08 µM and 6.84 µM
[14]
  GI50: 0.233 µM and 0.647 µM
  TGI: 2.1 µM and 4.36 µM
[15]
  GI50: 0.309 µM and 0.516 µM
  TGI: 2.71 µM and 4.09 µM
[16]
  GI50: 0.295 µM and 0.31 µM
  TGI: > 36.3 µM
[17]
  GI50: 0.198 µM and 0.378 µM
  TGI: 2.1 µM and 4.19 µM
[18]
  GI50: 0.108 µM and 0.347 µM
  TGI: 0.633 µM and 2.23 µM
[19]
  GI50: 3.13 µM and > 3.55 µM
  TGI: 25.7 µM and > 10 µM
[20]
  GI50: 0.253 µM and 0.394 µM
  TGI: 4.27 µM and > 7.87 µM
[21]
  GI50: 0.451 µM and 0.729 µM
  TGI: 35.3 µM and > 10 µM
[22]
  GI50: 1.34 µM and 1.49 µM
  TGI: > 100 µM
[23]
  GI50: 0.192 µM and 0.237 µM
  TGI: 1.68 µM and 1.97 µM
[24]
  GI50: 0.499 µM and 2.63 µM
  TGI: > 100 µM
[25]
  GI50: 1.2 µM and 2.52 µM
  TGI: 79.9 µM and > 10 µM
[26]
  GI50: 1.23 µM and 1.49 µM
  TGI: > 100 µM
[27]
  GI50: 0.4 µM and 0.767 µM
  TGI: > 40.8 µM
[28]
  GI50: 1.21 µM and 1.97 µM
  TGI: 11.8 µM and > 10 µM
[29]
  GI50: 0.253 µM and 0.445 µM
  TGI: 17.7 µM and > 10 µM
[30]
  GI50: 0.155 µM and 0.288 µM
  TGI: 2 µM and 3.28 µM
[31]
  GI50: 0.0158 µM and 0.0327 µM
  TGI: 0.0988 µM and 0.358 µM
[32]
  GI50: 0.155 µM and 0.22 µM
  TGI: > 35.7 µM
[33]
  GI50: 0.289 µM and 0.658 µM
  TGI: > 100 µM
[34]
  GI50: 0.371 µM and 0.642 µM
  TGI: 3.78 µM and > 10 µM
[35]
  GI50: 0.824 µM and 1.08 µM
  TGI: > 100 µM
[36]
  GI50: 0.223 µM and 0.278 µM
  TGI: 1.75 µM and 2.21 µM
[37]
  GI50: 0.294 µM and 0.301 µM
  TGI: 19.5 µM and > 10 µM
[38]
  GI50: 0.344 µM and 0.488 µM
  TGI: 6.57 µM and 5.44 µM
[39]
  GI50: 0.175 µM and 0.169 µM
  TGI: 1.81 µM and 1.4 µM
[40]
  GI50: 0.313 µM and 0.79 µM
  TGI: 4.19 µM and 5.7 µM
[41]
  GI50: 0.247 µM and 0.816 µM
  TGI: 16.2 µM and > 10 µM
[42]
  GI50: 0.185 µM and 0.303 µM
  TGI: 3.02 µM and > 5.2 µM
[43]
  GI50: 0.478 µM and 1.03 µM
  TGI: 5.13 µM and > 10 µM
[44]
  GI50: 0.0296 µM and 0.0752 µM
  TGI: 0.354 µM and 0.675 µM
[45]
  GI50: 0.0952 µM and 0.152 µM
  TGI: 1.03 µM and 1.3 µM
[46]
  GI50: 0.186 µM and 0.299 µM
  TGI: 0.954 µM and 3.27 µM
[47]
  GI50: 0.305 µM and 0.338 µM
  TGI: 3.64 µM and 4.83 µM
[48]
  GI50: 0.0939 µM and 0.168 µM
  TGI: 1.06 µM and 1.49 µM
[49]
  GI50: 0.39 µM and 0.348 µM
  TGI: 23.5 µM and > 10 µM
[50]
  GI50: 0.634 µM and 0.734 µM
  TGI: 18.4 µM and > 10 µM
[51]
  GI50: 0.33 µM and 0.326 µM
  TGI: 2.79 µM and 3.99 µM
[52]
  GI50: 0.558 µM and 0.973 µM
  TGI: > 100 µM
[53]
  GI50: 0.203 µM and 0.413 µM
  TGI: > 100 µM
[54]
  GI50: 0.18 µM and 0.188 µM
  TGI: 1.51 µM and 1.83 µM
[55]
  GI50: 1.07 µM and 0.542 µM
  TGI: 13.5 µM and > 8.26 µM
[56]
  GI50: 0.33 µM and 0.59 µM
  TGI: > 100 µM
[57]
  GI50: 0.0712 µM and 0.209 µM
  TGI: 1.92 µM and > 8.47 µM
[58]
  GI50: 1.22 µM and 1.63 µM
  TGI: 24.3 µM and > 10 µM

Source: PubChem BioAssay (NCI)
